Where two headings read alike, the source gives them in different places.
Legend:
[1] = Plasma levels of parent compounds after transdermal administration to hairless mice; type: in vivo; settings: transdermal on 10 cm^2 back skin; for Plasma concentration of the parent compound (peak plasma level): 20% solution or suspension in 1 ml 70% ethanol; for t (time to peak plasma level of the parent compound): 20% in 1 ml 70% ethanol
Procedure: Test compounds (20% solution or suspension of HPPs or parent drugs in 1 ml of 70% ethanol) were administered transdermally to 10 cm^2 skin on the backs of hairless mice. The plasma levels of the parent compounds were determined by HPLC.

rats = experiment: Antipyretic activity in rats given E. coli suspension as pyrogen; type: in vivo; settings: 100 mg/kg transdermally
Procedure: Rats received a sterilized E. coli suspension as a pyrogen. The control group was group A. 2 hours later, N-acetyl-p-aminophenyl dimethylaminobutyrate.HCl (100 mg/kg, B) and 4-acetamidophenyl 2((4-(dimethylamino)butanoyl)oxy)benzoate.HCl, (100 mg/kg, C) were administered transdermally respectively. The body temperature of rats was taken at 90 min. intervals before and after the administration of the test compounds.

[2] = Aqueous solubility of HPPs and parent drugs; type: physicochemical
[3] = In vitro penetration rate through human skin in modified Franz cells; type: in vitro ADME; settings: isolated human skin 360-400 μm, 2 mL, 20% in 0.2 M phosphate buffer pH 7.4
Procedure: The penetration rates of HPPs of 4-aminophenol derivatives and their parent drugs through human skin were measured in vitro by modified Franz cells. […] The human skin tissue (360-400 μm thick) that separated the top and the receptor chambers was isolated from the anterior or posterior thigh areas.
The amount of the tested compound penetrating the skin was determined by high-performance liquid chromatography (HPLC) method.
The lowest detectable apparent flux values in this method was 1 μg/cm^2/h, the parent drugs tested (e.g. acetaminophen and acetaminosalol) had […], and the corresponding HPPs had higher apparent flux value.

mice = experiment: Analgesic activity, acetic acid writhing inhibition; type: in vivo; settings: 100 mg/kg transdermally, versus control group
Procedure: Acetic acid solution was administered intraperitoneally to a group of mice (6 mice every group) 120 minutes after a test compound was administered to the mice at the dosage specified in the tables below. The prodrug compounds were administered either transdermally or orally. N-acetyl-p-aminophenyl dimethylaminobutyrate.HCl (100 mg/kg, B) and 4-acetamidophenyl 2((4-(dimethylamino)butanoyl)oxy)benzoate.HCl, (100 mg/kg, C) were administered transdermally. The number of writhings that occurred when mice were administered the acetic acid solution were counted, and the rate of inhibition based on the control group which was not pretreated with any test compounds was calculated. […] Group A was the control group.

[4] = In vivo transportation: amounts in organs and tissue of rats after application to back skin; settings: 6 hours after 20% in 1 mL 50% ethanol on 10 cm^2 back skin
Procedure: N-Acetyl-p-aminophenyl dimethylaminobutyrate.HCl (20% in 1 mL of 50% ethanol) was applied to about 10 cm^2 skin on the backs of rats (˜200 g). After 6 hours, the rats were terminated, and methanol (5 mL) was added to 1 g of tissue on the back of rat (under the skin), 1 ml of blood, 1 g of liver, 1 g of kidney, and 1 g of brain respectively (the tissue, liver, kidney or brain was washed with pH 7.2 buffer for three times) and the mixtures were homogenized. The samples were then centrifuged for 5 min and analyzed using HPLC.

in vivo = settings: mouse
[5] = water (aqueous), read-out: Solubility

Row | SMILES | Plasma concentration of the parent compound (peak plasma level) [1] [mg/L] | t (time to peak plasma level of the parent compound) ([1]; prodrug compound) [min] | body temperature, t = 0 min. (rats) | body temperature, t = 90 min. (rats) | body temperature, t = 180 min. (rats) | body temperature, t = 270 min. (rats) | solubility [2] [g/L] | In vitro Penetration rate (apparent flux) [3] [μg/cm^2/h] | rate of writhings inhibition (mice) [%] | t (time to peak plasma level of the parent compound) ([1]; parent compound) [min] | solubility [2, 5] [g/L] | LD50 (in vivo) [mg/kg] | further results
1 | CC(=O)Nc1ccc(OC(=O)c2ccccc2OC(=O)CCCN(C)C)cc1.Cl [4-acetamidophenyl 2((4-(dimethylamino)butanoyl)oxy)benzoate.HCl] | 30.0 | ~50 | 37.27 ± 0.06 | 36.63 ± 0.05 | 36.52 ± 0.08 | 36.50 ± 0.07 | >400 | 1800 | 55 | – | – | – | –
2 | CC(=O)Nc1ccc(OC(=O)CCCN(C)C)cc1.Cl [N-Acetyl-p-Aminophenyl Dimethylaminobutyrate.HCl] | 30.0 | ~50 | 37.32 ± 0.06 | 36.61 ± 0.05 | 36.50 ± 0.08 | 36.50 ± 0.07 | >400 | 1500 | 55 | – | – | – | N-acetyl-p-aminophenyl dimethylaminobutyrate detected in blood [4]: 10 ± 4 µg/g; N-acetyl-p-aminophenyl dimethylaminobutyrate detected in brain [4]: 3 ± 3 µg/g; N-acetyl-p-aminophenyl dimethylaminobutyrate detected in kidney [4]: 6 ± 4 µg/g; N-acetyl-p-aminophenyl dimethylaminobutyrate detected in liver [4]: 7 ± 4 µg/g; N-acetyl-p-aminophenyl dimethylaminobutyrate detected in under-skin tissue [4]: 15 ± 8 µg/g; acetaminophen detected in blood [4]: 30 ± 8 µg/g; acetaminophen detected in brain [4]: 10 ± 8 µg/g; acetaminophen detected in kidney [4]: 20 ± 10 µg/g; acetaminophen detected in liver [4]: 20 ± 10 µg/g; acetaminophen detected in under-skin tissue [4]: 60 ± 10 µg/g
3 | CC(=O)Nc1ccc(O)cc1 [acetaminophen, N-Acetyl-p-aminophenol, reference compound] | 0.1 | – | – | – | – | – | – | 10 | – | ~300 | < 0.2 | 340 | –
4 | CC(=O)Nc1ccc(OC(=O)c2ccccc2O)cc1 [acetaminosalol, 4-acetamidophenyl salicylate, reference compound] | 0.1 | – | – | – | – | – | – | 10 | – | ~300 | < 0.1 | 550 | –
